The source made the active and inactive calls. No cut-off for these calls is given here.
Experiments:
Candida albicans [1] = assay: Synergistic antibiofilm activity in Candida albicans 904 assessed as downregulation of EFG1 at 32 ug/ml incubated for 24 hrs in presence of fluconazole by RT-PCR analysis; assay type: functional, organism-based; settings: dose 32.0 µg/ml
Candida albicans [2] = assay: Synergistic antifungal activity against fluconazole-resistant Candida albicans 103 assessed as inhibition of fungal growth in presence of fluconazole by checker board microdilution assay; assay type: functional
[3] = Cytotoxicity against human BEAS-2B cell assessed as inhibition of cell growth after 24 hrs by MTT assay; assay type: toxicity, cell-based; settings: BEAS-2B cells
[4] = Metabolic stability in human liver microsomes assessed as half life in presence of NADPH cofactor under shaking condition for 10 mins measured after 5 to 60 mins by LC-MS/MS analysis; assay type: ADME, Microsome; settings: time 15-70 min
[5] = Cytotoxicity against mouse BV-2 cell assessed as inhibition of cell growth after 24 hrs by MTT assay; assay type: toxicity, cell-based; settings: BV-2 cells
A549 = assay: Cytotoxicity against human A549 cell assessed as inhibition of cell growth after 24 hrs by MTT assay; assay type: functional, cell-based; settings: A549, 24 h
Candida albicans [6] = assay: Ratio of MFC for Candida albicans 904 to MIC for Candida albicans 904 in presence of fluconazole; assay type: functional
Candida albicans [7] = assay: Potentiation of fluconazole-induced antifungal activity against fluconazole-resistant Candida albicans 904 assessed as fluconazole MIC by checker board microdilution assay; assay type: functional
Candida albicans [8] = assay: Potentiation of fluconazole-induced antifungal activity against fluconazole-resistant Candida albicans 100 assessed as fluconazole MIC by checker board microdilution assay; assay type: functional
Candida albicans [9] = assay: Synergistic antifungal activity against fluconazole-resistant Candida albicans 311 assessed as inhibition of fungal growth in presence of fluconazole by checker board microdilution assay; assay type: functional
Candida albicans [10] = assay: Antibiofilm activity against Candida albicans 904 assessed as inhibition of […] metabolism within the biofilm after 24 hrs by XTT reduction assay; assay type: functional
Candida albicans [11] = assay: Fungicidal activity against Candida albicans 904 assessed as colony forming at 4 times MIC in presence of fluconazole incubated for 48 hrs by time-kill curve assay; assay type: functional
Candida albicans [12] = assay: Antifungal activity against fluconazole-resistant Candida albicans 901 assessed as inhibition of fungal growth by checker board microdilution assay; assay type: functional
Candida albicans [13] = assay: Synergetic antifungal activity against fluconazole-resistant Candida albicans 904 assessed as fractional inhibitory concentration index in presence of fluconazole by checker board microdilution assay; assay type: functional
Candida albicans [14] = assay: Potentiation of fluconazole-induced antifungal activity against fluconazole-resistant Candida albicans 103 assessed as fluconazole MIC by checker board microdilution assay; assay type: functional
Candida albicans [15] = assay: Synergistic antibiofilm activity in Candida albicans 904 assessed as downregulation of CPH1 at 32 ug/ml incubated for 24 hrs in presence of fluconazole by RT-PCR analysis; assay type: functional, organism-based; settings: dose 32.0 µg/ml
[16] = Stability in human plasma assessed as compound remaining at 120 mins by LC-MS/MS analysis; assay type: ADME, cell-free; settings: read-out: Stability
Candida albicans [17] = assay: Fungicidal activity against Candida albicans 904 assessed as colony forming at 4 times MIC incubated for 48 hrs by time-kill curve assay; assay type: functional
Candida albicans [18] = assay: Synergistic antibiofilm activity against Candida albicans 904 assessed as inhibition of […] metabolism within the biofilm in presence of fluconazole after 48 hrs by XTT reduction assay; assay type: functional
Candida albicans [19] = assay: Synergistic antifungal activity against fluconazole-resistant Candida albicans 901 assessed as inhibition of fungal growth in presence of fluconazole by checker board microdilution assay; assay type: functional
Candida albicans [20] = assay: Antifungal activity against fluconazole-resistant Candida albicans 311 assessed as inhibition of fungal growth by checker board microdilution assay; assay type: functional
Candida albicans [21] = assay: Potentiation of fluconazole-induced antifungal activity against fluconazole-resistant Candida albicans 632 assessed as fluconazole MIC by checker board microdilution assay; assay type: functional
Candida albicans [22] = assay: Synergetic antifungal activity against fluconazole-resistant Candida albicans 632 assessed as fractional inhibitory concentration index in presence of fluconazole by checker board microdilution assay; assay type: functional
Candida albicans [23] = assay: Synergetic antifungal activity against fluconazole-resistant Candida albicans 901 assessed as fractional inhibitory concentration index in presence of fluconazole by checker board microdilution assay; assay type: functional
[24] = Cytotoxicity against mouse NIH3T3 cell assessed as inhibition of cell growth after 24 hrs by MTT assay; assay type: toxicity, cell-based; settings: NIH3T3 cells
Candida albicans [25] = assay: Antifungal activity against fluconazole-resistant Candida albicans 632 assessed as inhibition of fungal growth by checker board microdilution assay; assay type: functional
Candida albicans [26] = assay: Antifungal activity against fluconazole-resistant Candida albicans 100 assessed as inhibition of fungal growth by checker board microdilution assay; assay type: functional
[27] = Cytotoxicity against human THLE-2 cell assessed as inhibition of cell growth after 24 hrs by MTT assay; assay type: toxicity, cell-based; settings: THLE-2 cells
Candida albicans [28] = assay: Induction of morphological changes in Candida albicans 904 assessed as hyphal formation by measuring EFG1 level incubated for 4 hrs in presence of fluconazole; assay type: functional, organism-based
Candida albicans [29] = assay: Synergistic antifungal activity against fluconazole-resistant Candida albicans 632 assessed as inhibition of fungal growth in presence of fluconazole by checker board microdilution assay; assay type: functional
Candida albicans [30] = assay: Potentiation of fluconazole-induced antifungal activity against fluconazole-resistant Candida albicans 311 assessed as fluconazole MIC by checker board microdilution assay; assay type: functional
Candida albicans [31] = assay: Synergistic antifungal activity against fluconazole-resistant Candida albicans 100 assessed as inhibition of fungal growth in presence of fluconazole by checker board microdilution assay; assay type: functional
CYP2C9 = CYP2C9 (Homo sapiens, UniProt P11712); assay: Inhibition of CYP2C9 in human liver microsome at 10 uM using diclofenac as substrate incubated for 10 mins in presence of NADPH cofactor by LC-MS/MS analysis; assay type: ADME; settings: liver microsomes, probe diclofenac
[32] = Stability in human plasma assessed as half life at 120 mins by LC-MS/MS analysis; assay type: ADME, cell-free
CYP3A4 = CYP3A4 (Homo sapiens, UniProt P08684); assay: Inhibition of CYP3A4 in human liver microsome at 10 uM using midazolam as substrate incubated for 10 mins in presence of NADPH cofactor by LC-MS/MS analysis; assay type: ADME; settings: liver microsomes, probe midazolam
[33] = Metabolic stability in human liver microsomes assessed as intrinsic clearance in presence of NADPH cofactor under shaking condition for 10 mins measured after 5 to 60 mins by LC-MS/MS analysis; assay type: ADME, Microsome; settings: time 15-70 min
Candida albicans [34] = assay: Synergistic antibiofilm activity in Candida albicans 904 assessed as downregulation of ALS3 at 32 ug/ml incubated for 24 hrs in presence of fluconazole by RT-PCR analysis; assay type: functional, organism-based; settings: dose 32.0 µg/ml
Candida albicans [35] = assay: Antibiofilm activity against Candida albicans 904 assessed as inhibition of […] metabolism within the biofilm after 48 hrs by XTT reduction assay; assay type: functional
Candida albicans [36] = assay: Induction of morphological changes in Candida albicans 904 assessed as hyphal formation by measuring TEC1 level incubated for 4 hrs in presence of fluconazole; assay type: functional, organism-based
Candida albicans [37] = assay: Synergetic antifungal activity against fluconazole-resistant Candida albicans 100 assessed as fractional inhibitory concentration index in presence of fluconazole by checker board microdilution assay; assay type: functional
CYP2C19 = CYP2C19 (Homo sapiens, UniProt P33261); assay: Inhibition of CYP2C19 in human liver microsome at 10 uM using S-mephenytoin as substrate incubated for 10 mins in presence of NADPH cofactor by LC-MS/MS analysis; assay type: ADME; settings: liver microsomes, probe S-mephenytoin
CYP2C19, sequence (P33261 whole entry): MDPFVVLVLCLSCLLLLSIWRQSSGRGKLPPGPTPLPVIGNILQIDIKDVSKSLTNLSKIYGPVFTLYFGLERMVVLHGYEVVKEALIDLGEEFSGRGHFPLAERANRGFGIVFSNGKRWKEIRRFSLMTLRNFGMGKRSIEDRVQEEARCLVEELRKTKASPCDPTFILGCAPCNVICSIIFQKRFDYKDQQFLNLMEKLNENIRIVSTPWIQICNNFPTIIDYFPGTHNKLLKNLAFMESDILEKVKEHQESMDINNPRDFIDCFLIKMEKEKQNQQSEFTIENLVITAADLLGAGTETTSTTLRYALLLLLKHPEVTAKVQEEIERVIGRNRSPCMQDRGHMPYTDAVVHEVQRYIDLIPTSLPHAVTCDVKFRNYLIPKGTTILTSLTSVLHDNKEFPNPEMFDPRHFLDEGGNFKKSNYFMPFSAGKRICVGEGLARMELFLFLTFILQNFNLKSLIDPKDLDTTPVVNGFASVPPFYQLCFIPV

CYP2C9, sequence (P11712 whole entry): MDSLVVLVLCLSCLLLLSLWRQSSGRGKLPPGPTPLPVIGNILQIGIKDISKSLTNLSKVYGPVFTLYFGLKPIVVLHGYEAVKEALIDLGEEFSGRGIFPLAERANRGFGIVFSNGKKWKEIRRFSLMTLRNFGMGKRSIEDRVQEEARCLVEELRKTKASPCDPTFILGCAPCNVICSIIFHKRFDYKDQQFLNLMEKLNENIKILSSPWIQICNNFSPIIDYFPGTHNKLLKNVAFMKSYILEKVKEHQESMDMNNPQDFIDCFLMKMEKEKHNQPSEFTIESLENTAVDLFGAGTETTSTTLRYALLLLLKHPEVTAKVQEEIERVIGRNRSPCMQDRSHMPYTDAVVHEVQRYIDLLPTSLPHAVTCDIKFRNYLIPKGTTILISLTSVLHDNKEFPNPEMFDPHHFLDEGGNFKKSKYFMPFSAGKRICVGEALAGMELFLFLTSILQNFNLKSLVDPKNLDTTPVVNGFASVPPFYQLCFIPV
CYP3A4, sequence (P08684 whole entry): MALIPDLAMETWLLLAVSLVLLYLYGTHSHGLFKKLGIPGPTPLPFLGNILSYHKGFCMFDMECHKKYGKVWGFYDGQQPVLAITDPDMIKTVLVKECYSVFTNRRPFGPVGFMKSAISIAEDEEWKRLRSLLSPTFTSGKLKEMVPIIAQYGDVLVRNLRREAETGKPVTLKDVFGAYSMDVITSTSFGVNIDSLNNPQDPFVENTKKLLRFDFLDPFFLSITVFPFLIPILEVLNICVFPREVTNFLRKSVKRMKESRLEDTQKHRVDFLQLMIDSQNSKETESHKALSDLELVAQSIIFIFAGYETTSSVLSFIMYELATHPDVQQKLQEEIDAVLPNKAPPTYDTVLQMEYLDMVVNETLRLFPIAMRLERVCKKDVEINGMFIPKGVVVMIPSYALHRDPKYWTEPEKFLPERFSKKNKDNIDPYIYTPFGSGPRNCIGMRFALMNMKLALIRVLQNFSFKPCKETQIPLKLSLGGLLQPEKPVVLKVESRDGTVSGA

Compound: CNC(=O)c1noc(-c2cc(-c3ccc(C)cc3)c(O)cc2O)c1-c1ccc(CN2CCOCC2)cc1
- Activity (Candida albicans [1]): Active
- MIC80 (Candida albicans [2]): 1 mg/L
- IC50 at 24 h [3]: 12.2 µM
- half-life [4]: 24.8 min
- IC50 at 24 h [5]: 11.1 µM
- IC50 (A549): 7.12 µM
- Ratio (Candida albicans [6]): 2
- MIC80 (Candida albicans [7]): 1 mg/L
- MIC80 (Candida albicans [8]): 2 mg/L
- MIC80 (Candida albicans [9]): 2 mg/L
- MIC50 (Candida albicans [10]): > 64 mg/L
- MFC (Candida albicans [11]): 0.5 mg/L
- MIC80 (Candida albicans [12]): > 64 mg/L
- fractional inhibitory concentration index (FICI) (Candida albicans [13]): 0.02
- MIC80 (Candida albicans [14]): 2 mg/L
- Activity (Candida albicans [15]): Active
- remaining at 2 h [16]: 92.8%
- MFC (Candida albicans [17]): > 64 mg/L
- MIC50 (Candida albicans [18]): 4 mg/L
- MIC80 (Candida albicans [19]): 0.5 mg/L
- MIC80 (Candida albicans [20]): > 64 mg/L
- MIC80 (Candida albicans [21]): 0.5 mg/L
- fractional inhibitory concentration index (FICI) (Candida albicans [22]): 0.016
- fractional inhibitory concentration index (FICI) (Candida albicans [23]): 0.039
- IC50 at 24 h [24]: 8.63 µM
- MIC80 (Candida albicans [25]): > 64 mg/L
- MIC80 (Candida albicans [26]): > 64 mg/L
- IC50 at 24 h [27]: 10.6 µM
- Activity (Candida albicans [28]): Active
- MIC80 (Candida albicans [29]): 0.5 mg/L
- MIC80 (Candida albicans [30]): 2 mg/L
- MIC80 (Candida albicans [31]): 0.25 mg/L
- inhibition at 10 min, 10 µM (CYP2C9): 25.2%
- half-life [32]: > 288 min
- inhibition at 10 min, 10 µM (CYP3A4): 43.2%
- CLint [33]: 3.02 L/h/kg
- Activity (Candida albicans [34]): Active
- MIC50 (Candida albicans [35]): > 64 mg/L
- Activity (Candida albicans [36]): Active
- fractional inhibitory concentration index (FICI) (Candida albicans [37]): 0.035
- inhibition at 10 min, 10 µM (CYP2C19): 18.6%

Compound: CCNC(=O)c1noc(-c2cc(-c3ccc(C)cc3)c(O)cc2O)c1-c1ccc(CN2CCOCC2)cc1
- Activity (Candida albicans [1]): Active
- MIC80 (Candida albicans [2]): 0.25 mg/L
- IC50 at 24 h [3]: > 50 µM
- half-life [4]: 32.1 min
- IC50 at 24 h [5]: 10.3 µM
- IC50 (A549): 13.1 µM
- Ratio (Candida albicans [6]): 1
- MIC80 (Candida albicans [7]): 2 mg/L
- MIC80 (Candida albicans [8]): 2 mg/L
- MIC80 (Candida albicans [9]): 0.25 mg/L
- MIC50 (Candida albicans [10]): > 64 mg/L
- MFC (Candida albicans [11]): 0.25 mg/L
- MIC80 (Candida albicans [12]): > 64 mg/L
- fractional inhibitory concentration index (FICI) (Candida albicans [13]): 0.035
- MIC80 (Candida albicans [14]): 2 mg/L
- Activity (Candida albicans [15]): Active
- remaining at 2 h [16]: 110%
- MFC (Candida albicans [17]): > 64 mg/L
- MIC50 (Candida albicans [18]): 1 mg/L
- MIC80 (Candida albicans [19]): 0.125 mg/L
- MIC80 (Candida albicans [20]): > 64 mg/L
- MIC80 (Candida albicans [21]): 2 mg/L
- fractional inhibitory concentration index (FICI) (Candida albicans [22]): 0.033
- fractional inhibitory concentration index (FICI) (Candida albicans [23]): 0.018
- IC50 at 24 h [24]: 21.3 µM
- MIC80 (Candida albicans [25]): > 64 mg/L
- MIC80 (Candida albicans [26]): > 64 mg/L
- IC50 at 24 h [27]: 7.15 µM
- Activity (Candida albicans [28]): Active
- MIC80 (Candida albicans [29]): 0.125 mg/L
- MIC80 (Candida albicans [30]): 2 mg/L
- MIC80 (Candida albicans [31]): 0.125 mg/L
- inhibition at 10 min, 10 µM (CYP2C9): 36.5%
- half-life [32]: > 288 min
- inhibition at 10 min, 10 µM (CYP3A4): 36.7%
- CLint [33]: 2.33 L/h/kg
- Activity (Candida albicans [34]): Active
- MIC50 (Candida albicans [35]): > 64 mg/L
- Activity (Candida albicans [36]): Active
- fractional inhibitory concentration index (FICI) (Candida albicans [37]): 0.033
- inhibition at 10 min, 10 µM (CYP2C19): 22.2%
